# System: human natural anti-Gal
# Assay: TLC immunostaining of red blood cell glycolipids with human natural anti-Gal
# Type: binding
# Settings: glycolipids on thin layer chromatography plates
# From the text: A rich source for α-gal glycolipids is rabbit red blood cells. The two major glycosphingolipids (GSL), i.e. glycolipids with ceramide tail, in rabbit red blood cell membranes are ceramide (Cer) trihexoside (CTH, with 3 sugars [hexoses], present also in human red blood cells) with the structure Galα1-4Galβ1-4Glc-Cer and ceramide pentahexoside (CPH, with 5 sugars [hexoses]) with α-gal epitopes as terminal part of the CPH structure of Galα1-3Galβ1-4GlcNAcβ1-3Galβ1-4Glc-Cer (Eto T, Iichikawa Y, Nishimura K, Ando S, Yamakawa T J. Biochem. (Tokyo) 1968; 64: 205-13, and Stellner K, Saito H, Hakomori S. Arch. Biochem. Biophys. 1973; 133: 464-72) (See FIG. 1 and FIG. 6A, lane 1).
# The use of α-gal glycolipids in the clinical setting may require much more material than that isolated from rabbit red blood cell membranes. The logistic limitations in supplies of large amounts of rabbit red blood cells can be overcome by the use of bovine red blood cells (i.e., for example, cow) instead of rabbit red blood cells since there is no practical limit to the amounts of bovine blood which can be supplied for preparation of α-gal glycolipids. […]
substance,measurement,value
Galα1-3Galβ1-4GlcNAcβ1-3Galβ1-4Glc-Cer [CPH],anti-Gal binding on TLC immunostaining,binding of the antibody to CPH

# From patent US7820628B2, “Tumor lesion regression and conversion in situ into autologous tumor vaccines by compositions that result in anti-Gal antibody binding” (University of Massachusetts Medical School, priority 2005, dated 2010)
